From PubChem BioAssay (NCI)
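The compound was tested at five concentrations on cells cultured in 96-well plates, with a 48-hour exposure period. Abbreviation: GI50, concentration required for 50% inhibition of growth. At the TGI there is no net growth.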

Tests used:
Assay in all cases: DTP human tumour cell line panel, 48 h
SNB-75 CNS = system: SNB-75 CNS
TK-10 renal = system: TK-10 renal
SF-295 CNS = system: SF-295 CNS
NCI/ADR-RES ovarian = system: NCI/ADR-RES ovarian
MDA-MB-231 breast = system: MDA-MB-231 breast
HOP-92 NSCLC = system: HOP-92 NSCLC
DU-145 prostate = system: DU-145 prostate
HOP-62 NSCLC = system: HOP-62 NSCLC
PC-3 prostate = system: PC-3 prostate
SN12C renal = system: SN12C renal
UACC-62 melanoma = system: UACC-62 melanoma
MCF7 breast = system: MCF7 breast
HCT-116 colon = system: HCT-116 colon
NCI-H460 lung = system: NCI-H460 lung
OVCAR-8 ovarian = system: OVCAR-8 ovarian
HS 578T breast = system: HS 578T breast
RPMI-8226 leukemia = system: RPMI-8226 leukemia
RXF 393 renal = system: RXF 393 renal
OVCAR-4 ovarian = system: OVCAR-4 ovarian
UO-31 renal = system: UO-31 renal
SNB-19 CNS = system: SNB-19 CNS
K-562 leukemia = system: K-562 leukemia
SK-MEL-5 melanoma = system: SK-MEL-5 melanoma
MALME-3M melanoma = system: MALME-3M melanoma
BT-549 breast = system: BT-549 breast
T-47D breast = system: T-47D breast
NCI-H522 lung = system: NCI-H522 lung
OVCAR-5 ovarian = system: OVCAR-5 ovarian
SK-OV-3 ovarian = system: SK-OV-3 ovarian
COLO 205 colon = system: COLO 205 colon
OVCAR-3 ovarian = system: OVCAR-3 ovarian
NCI-H23 lung = system: NCI-H23 lung
HT29 colon = system: HT29 colon
HCT-15 colon = system: HCT-15 colon
IGROV1 ovarian = system: IGROV1 ovarian
786-0 renal = system: 786-0 renal
U251 CNS = system: U251 CNS
KM12 colon = system: KM12 colon
A498 renal = system: A498 renal
MDA-MB-435 = system: MDA-MB-435
SK-MEL-2 melanoma = system: SK-MEL-2 melanoma
SF-268 CNS = system: SF-268 CNS
CAKI-1 renal = system: CAKI-1 renal
ACHN renal = system: ACHN renal
SF-539 CNS = system: SF-539 CNS
SR leukemia = system: SR leukemia
HL-60(TB) leukemia = system: HL-60(TB) leukemia
SW-620 colon = system: SW-620 colon
M14 melanoma = system: M14 melanoma
NCI-H226 lung = system: NCI-H226 lung
CCRF-CEM leukemia = system: CCRF-CEM leukemia
HCC-2998 colon = system: HCC-2998 colon
A549 NSCLC = system: A549 NSCLC
EKVX NSCLC = system: EKVX NSCLC
MOLT-4 leukemia = system: MOLT-4 leukemia
SK-MEL-28 melanoma = system: SK-MEL-28 melanoma
UACC-257 melanoma = system: UACC-257 melanoma
LOX IMVI melanoma = system: LOX IMVI melanoma

## C[As](C)SCC(COC(=O)c1ccccc1)OC(=O)c1ccccc1 (stereo not given)
SNB-75 CNS
  GI50: 968 nM
  TGI: 12700 nM
TK-10 renal
  GI50: 15.9 nM
  TGI: 126 nM
SF-295 CNS
  TGI: 1350 nM
NCI/ADR-RES ovarian
  GI50: 152 nM
  TGI: 367 nM
MDA-MB-231 breast
  GI50: 463 nM
  TGI: 2970 nM
HOP-92 NSCLC
  GI50: 216 nM
  TGI: 1740 nM
DU-145 prostate
  GI50: 473 nM
  TGI: 4170 nM
HOP-62 NSCLC
  GI50: 742 nM
  TGI: 1860 nM
PC-3 prostate
  GI50: 358 nM
  TGI: 15700 nM
SN12C renal
  GI50: 230 nM
  TGI: 1230 nM
UACC-62 melanoma
  GI50: 156 nM
  TGI: 1370 nM
MCF7 breast
  GI50: 46.2 nM
  TGI: 312 nM
HCT-116 colon
  GI50: 29.2 nM
  TGI: 434 nM
NCI-H460 lung
  GI50: 2210 nM
  TGI: 12100 nM
OVCAR-8 ovarian
  GI50: 225 nM
  TGI: 667 nM
HS 578T breast
  GI50: 627 nM
  TGI: 4450 nM
RPMI-8226 leukemia
  GI50: 26.4 nM
  TGI: 357 nM
RXF 393 renal
  GI50: < 16.9 nM
  TGI: 88.1 nM
OVCAR-4 ovarian
  GI50: 1740 nM
  TGI: > 32200 nM
UO-31 renal
  GI50: 763 nM
  TGI: 8060 nM
SNB-19 CNS
  GI50: 3630 nM
  TGI: 19600 nM
K-562 leukemia
  GI50: < 20.5 nM
  TGI: 1220 nM
SK-MEL-5 melanoma
  GI50: 15 nM
  TGI: 67.8 nM
MALME-3M melanoma
  TGI: 34.5 nM
BT-549 breast
  GI50: 1010 nM
  TGI: 6400 nM
T-47D breast
  GI50: 45.2 nM
  TGI: 3840 nM
NCI-H522 lung
  GI50: 83.6 nM
  TGI: 2920 nM
OVCAR-5 ovarian
  GI50: 556 nM
  TGI: 2000 nM
SK-OV-3 ovarian
  GI50: 3160 nM
  TGI: 18100 nM
COLO 205 colon
  GI50: 51.4 nM
  TGI: 1880 nM
OVCAR-3 ovarian
  TGI: 23 nM
NCI-H23 lung
  GI50: 50 nM
  TGI: 125 nM
HT29 colon
  GI50: 302 nM
  TGI: 2260 nM
HCT-15 colon
  GI50: 35.7 nM
  TGI: 1400 nM
IGROV1 ovarian
  GI50: 918 nM
  TGI: 17100 nM
786-0 renal
  GI50: 100 nM
  TGI: 556 nM
U251 CNS
  GI50: 1710 nM
  TGI: 6670 nM
KM12 colon
  GI50: 384 nM
  TGI: 7920 nM
A498 renal
  GI50: 135 nM
  TGI: 1150 nM
MDA-MB-435
  GI50: 19.1 nM
  TGI: 66.4 nM
SK-MEL-2 melanoma
  GI50: 400 nM
  TGI: 2800 nM
SF-268 CNS
  GI50: 344 nM
  TGI: 4420 nM
CAKI-1 renal
  GI50: < 18.1 nM
  TGI: 49.9 nM
ACHN renal
  GI50: 36.9 nM
  TGI: 285 nM
SF-539 CNS
  GI50: 271 nM
  TGI: 775 nM
SR leukemia
  GI50: 24.1 nM
  TGI: 183 nM
HL-60(TB) leukemia
  GI50: 16.1 nM
  TGI: 100 nM
SW-620 colon
  GI50: 31.4 nM
  TGI: 1660 nM
M14 melanoma
  GI50: 58.8 nM
  TGI: 1860 nM
NCI-H226 lung
  GI50: 1090 nM
  TGI: 3750 nM
CCRF-CEM leukemia
  GI50: 30.5 nM
  TGI: 759 nM
HCC-2998 colon
  GI50: 104 nM
  TGI: 232 nM
A549 NSCLC
  GI50: 1450 nM
  TGI: 11300 nM
EKVX NSCLC
  GI50: 1860 nM
  TGI: 10700 nM
MOLT-4 leukemia
  GI50: 13 nM
  TGI: 154 nM
SK-MEL-28 melanoma
  GI50: 504 nM
  TGI: 17400 nM
UACC-257 melanoma
  GI50: 66 nM
  TGI: 1510 nM

## O=C(C(Cl)=C(Nc1ccccc1)Nc1ccccc1)C(Cl)Cl
TK-10 renal
  TGI: > 100000 nM
SF-295 CNS
  TGI: > 100000 nM
NCI/ADR-RES ovarian
  TGI: > 100000 nM
MDA-MB-231 breast
  TGI: 91200 nM
HOP-92 NSCLC
  TGI: 65600 nM
DU-145 prostate
  TGI: > 100000 nM
HOP-62 NSCLC
  TGI: 69700 nM
PC-3 prostate
  TGI: > 100000 nM
SN12C renal
  TGI: 79700 nM
UACC-62 melanoma
  TGI: 54100 nM
MCF7 breast
  TGI: 62500 nM
HCT-116 colon
  TGI: 60200 nM
NCI-H460 lung
  TGI: > 100000 nM
OVCAR-8 ovarian
  TGI: 42800 nM
HS 578T breast
  TGI: > 100000 nM
RPMI-8226 leukemia
  TGI: 78900 nM
RXF 393 renal
  TGI: 56100 nM
OVCAR-4 ovarian
  TGI: > 100000 nM
UO-31 renal
  TGI: > 100000 nM
SNB-19 CNS
  TGI: 71300 nM
K-562 leukemia
  TGI: 86400 nM
SK-MEL-5 melanoma
  TGI: 35600 nM
MALME-3M melanoma
  TGI: 45000 nM
BT-549 breast
  TGI: > 100000 nM
T-47D breast
  TGI: 75900 nM
NCI-H522 lung
  TGI: 37400 nM
SK-OV-3 ovarian
  TGI: 94600 nM
COLO 205 colon
  TGI: 97700 nM
LOX IMVI melanoma
  TGI: 30300 nM
OVCAR-3 ovarian
  TGI: 79300 nM
NCI-H23 lung
  TGI: 93200 nM
HT29 colon
  TGI: 48100 nM
HCT-15 colon
  TGI: 34100 nM
IGROV1 ovarian
  TGI: > 100000 nM
786-0 renal
  TGI: 69100 nM
KM12 colon
  TGI: > 100000 nM
A498 renal
  TGI: 74500 nM
MDA-MB-435
  TGI: 39800 nM
SF-268 CNS
  TGI: 76700 nM
CAKI-1 renal
  TGI: 45000 nM
ACHN renal
  TGI: > 100000 nM
SF-539 CNS
  TGI: > 100000 nM
SR leukemia
  TGI: 49400 nM
HL-60(TB) leukemia
  TGI: 51900 nM
SW-620 colon
  TGI: 57000 nM
M14 melanoma
  TGI: 43800 nM
NCI-H226 lung
  TGI: 93600 nM
CCRF-CEM leukemia
  TGI: 77600 nM
HCC-2998 colon
  TGI: 37300 nM
A549 NSCLC
  TGI: > 100000 nM
EKVX NSCLC
  TGI: 70200 nM
MOLT-4 leukemia
  TGI: 45100 nM
SK-MEL-28 melanoma
  TGI: > 100000 nM
UACC-257 melanoma
  TGI: > 100000 nM
